The text below walks through data of patent US20110190280A1, “Thiazole And Oxazole Kinase Inhibitors” (priority 2007, published 2011).

The subject of one assay is HT-29 tumor cells. Nature of the assay: Cell growth inhibition assay (CellTiter-Glo), HT-29.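 Note: ATP content read by luminescence as proxy for cell number, growth inhibition versus DMSO vehicle wells, 0.2% DMSO final, nine serial threefold compound dilutions.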 The following applies: Homo sapiens, HT-29, 72 h, read-out: Activity in HT-29 Tumor Cells. A general note: ATP-based viability assays read luminescence as a measure of living cells.
The target of a further assay is B-Raf (Homo sapiens, UniProt P15056). Nature of the assay: B-Raf Accelerated MEK ATPase assay (BRAMA). Format: biochemical. To be noted: BRAMA enzyme assay; class by pIC50; read-out: B-Raf Activity. The method, boiled down: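 B-Raf activity read as intrinsic MEK ATPase: catalytic activated RAF with non-phosphorylated MEK drives ADP formation, coupled through pyruvate kinase and lactate dehydrogenase to NADH oxidation, independent of ERK phosphorylation.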

The test system of another assay is A375P tumor cells. Nature of the assay: Cell growth inhibition assay (CellTiter-Glo), A375P.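 Note: total ATP luminescence used as proxy for cell number, serial threefold compound dilutions at 0.2% DMSO, growth inhibition expressed versus DMSO vehicle-treated wells.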 To be noted: Homo sapiens, 72 h, read-out: Activity in A375P Tumor Cells.
Another assay deals with SK-MEL-28 tumor cells. Nature of the assay: Cell growth inhibition assay (CellTiter-Glo), SK-MEL-28.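 Note: luminescent total ATP as a proxy for cell number, threefold serial dilutions at 0.2% DMSO, percent growth inhibition versus DMSO vehicle control wells.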 To be noted: Homo sapiens, SK-MEL-28, 72 h, read-out: Activity in SK-MEL-28 Tumor Cells.
Another assay has as its system SK-MEL-3 tumor cells. Description: Cell growth inhibition assay (CellTiter-Glo), SK-MEL-3.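 Note: human melanoma cells grown with compound for 3 days in 0.2% DMSO, total ATP read by luminescence as proxy for cell number, growth inhibition versus DMSO-treated wells.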 To be noted: Homo sapiens, SK-MEL3, 72 h, read-out: Activity in SK-MEL-3 Tumor Cells.
The subject of a further assay is Colo205 tumor cells. Nature of the assay: Cell growth inhibition assay (CellTiter-Glo), Colo205.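 Note: growth measured via total ATP luminescence (CellTiter-Glo) as a proxy for cell number, inhibition expressed against DMSO-treated control wells, 3-day exposure at 0.2% final DMSO.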 The following applies: Homo sapiens, COLO 205, 72 h, read-out: Activity in Colo205 Tumor Cells.

The structures appear in SMILES notation. Where a name gives a salt, the structure may show the parent alone.

Chain of B-Raf (P15056 whole entry): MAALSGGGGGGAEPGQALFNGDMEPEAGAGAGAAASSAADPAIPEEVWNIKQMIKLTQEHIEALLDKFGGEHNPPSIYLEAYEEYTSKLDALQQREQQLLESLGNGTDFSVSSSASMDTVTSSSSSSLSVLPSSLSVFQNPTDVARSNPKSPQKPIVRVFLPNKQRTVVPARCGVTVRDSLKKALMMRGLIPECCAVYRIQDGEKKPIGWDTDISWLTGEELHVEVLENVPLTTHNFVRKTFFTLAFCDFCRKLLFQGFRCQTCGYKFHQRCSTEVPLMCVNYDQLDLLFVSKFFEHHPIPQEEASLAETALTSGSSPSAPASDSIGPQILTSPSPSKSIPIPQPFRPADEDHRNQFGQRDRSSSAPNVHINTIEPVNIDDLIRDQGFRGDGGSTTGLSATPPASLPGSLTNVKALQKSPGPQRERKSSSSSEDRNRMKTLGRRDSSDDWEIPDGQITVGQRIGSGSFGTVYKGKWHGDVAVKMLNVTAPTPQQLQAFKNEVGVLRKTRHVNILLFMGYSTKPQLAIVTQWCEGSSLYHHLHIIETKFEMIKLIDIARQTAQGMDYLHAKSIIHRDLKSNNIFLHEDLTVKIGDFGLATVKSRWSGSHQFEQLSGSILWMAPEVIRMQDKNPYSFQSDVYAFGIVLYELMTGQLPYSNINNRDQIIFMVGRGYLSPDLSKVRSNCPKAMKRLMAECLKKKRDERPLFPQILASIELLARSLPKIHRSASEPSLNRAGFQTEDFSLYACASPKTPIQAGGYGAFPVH

With `COc1cc(OC)cc(-c2nc(NC3CC3)sc2-c2ccnc(Nc3ccc(OC4CCN(CCS(C)(=O)=O)CC4)c(F)c3)n2)c1` [Example 17, 4-[4-[3,5-Bis(methyloxy)phenyl]-2-(cyclopropylamino)-1,3-thiazol-5-yl]-N-[3-fluoro-4-({1-[2-(methylsulfonyl)ethyl]-4-piperidinyl}oxy)phenyl]-2-pyrimidinamine], the IC50 with HT-29 tumor cells is < 0.5 µM; on B-Raf, < 0.1 µM; in the assay on A375P tumor cells it was < 0.5 µM; in the assay with SK-MEL-28 tumor cells it was < 0.5 µM; with SK-MEL-3 tumor cells it was < 0.5 µM; in the assay on Colo205 tumor cells, < 0.5 µM.

As for `CCNc1nc(-c2cc(OC)cc(OC)c2)c(-c2ccnc(Nc3ccc(N4CCN(CCF)CC4)c(F)c3)n2)o1` [Example 117], the IC50 is 0.5 to 5 µM in the assay on HT-29 tumor cells; < 0.1 µM at B-Raf; 0.5 to 5 µM in the assay on A375P tumor cells; 0.5 to 5 µM with SK-MEL-28 tumor cells; 0.5 to 5 µM with SK-MEL-3 tumor cells; < 0.5 µM in the assay with Colo205 tumor cells.

As to `COc1cc(OC)cc(-c2nc(Nc3ccccc3)sc2-c2ccnc(Nc3ccc(OC4CCN(CCS(C)(=O)=O)CC4)c(F)c3)n2)c1` [Example 23, 4-[4-[3,5-Bis(methyloxy)phenyl]-2-(phenylamino)-1,3-thiazol-5-yl]-N-[3-fluoro-4-({1-[2-(methylsulfonyl)ethyl]-4-piperidinyl}oxy)phenyl]-2-pyrimidinamine hydrochloride], the IC50 with HT-29 tumor cells was < 0.5 µM; at B-Raf, < 0.1 µM; in the assay with A375P tumor cells, 0.5 to 5 µM; in the assay with SK-MEL-28 tumor cells, 0.5 to 5 µM; in the assay on SK-MEL-3 tumor cells it was < 0.5 µM; in the assay on Colo205 tumor cells, 0.5 to 5 µM.

In the case of `CCNc1nc(-c2cc(C)cc(OC)c2)c(-c2ccnc(Nc3ccc(OCCOC)c(F)c3)n2)s1` [Example 38, 4-{2-(Ethylamino)-4-[3-methyl-5-(methyloxy)phenyl]-1,3-thiazol-5-yl}-N-(3-fluoro-4-{[2-(methyloxy)ethyl]oxy}phenyl)-2-pyrimidinamine], the IC50 in the assay on HT-29 tumor cells was < 0.5 µM; on B-Raf it was < 0.1 µM; in the assay on A375P tumor cells it was < 0.5 µM; with SK-MEL-28 tumor cells, 0.5 to 5 µM; in the assay with SK-MEL-3 tumor cells, < 0.5 µM; with Colo205 tumor cells, < 0.5 µM.

For `CCNc1nc(-c2cc(C)cc(OC)c2)c(-c2ccnc(Nc3ccc(N4CCN(C)CC4)c(Cl)c3)n2)s1` [Example 31, N-[3-Chloro-4-(4-methyl-1-piperazinyl)phenyl]-4-{2-(ethylamino)-4-[3-methyl-5-(methyloxy)phenyl]-1,3-thiazol-5-yl}-2-pyrimidinamine], the IC50 in the assay with HT-29 tumor cells is < 0.5 µM; on B-Raf, < 0.1 µM; in the assay on A375P tumor cells, < 0.5 µM; with SK-MEL-28 tumor cells, < 0.5 µM; in the assay with SK-MEL-3 tumor cells, < 0.5 µM; in the assay on Colo205 tumor cells, < 0.5 µM.

In the case of `COc1cc(OC)cc(-c2nc(NCCF)sc2-c2ccnc(Nc3ccc(OCCN4CCCC4)c(Cl)c3)n2)c1` [Example 21, 4-{4-[3,5-Bis(methyloxy)phenyl]-2-[(2-fluoroethyl)amino]-1,3-thiazol-5-yl}-N-(3-chloro-4-{[2-(1-pyrrolidinyl)ethyl]oxy}phenyl)-2-pyrimidinamine], the IC50 is < 0.5 µM in the assay on HT-29 tumor cells; < 0.1 µM at B-Raf; < 0.5 µM in the assay with A375P tumor cells; 0.5 to 5 µM with SK-MEL-28 tumor cells; < 0.5 µM in the assay with SK-MEL-3 tumor cells; 0.5 to 5 µM with Colo205 tumor cells.

Regarding `CCNc1nc(-c2cc(OC)cc(OC)c2)c(-c2ccnc(Nc3ccc(N4CCN(CCF)CC4)c(F)c3)n2)s1` [Example 8, 4-[4-[3,5-Bis(methyloxy)phenyl]-2-(ethylamino)-1,3-thiazol-5-yl]-N-{3-fluoro-4-[4-(2-fluoroethyl)-1-piperazinyl]phenyl}-2-pyrimidinamine], the IC50 with HT-29 tumor cells is < 0.5 µM; on B-Raf, < 0.1 µM; in the assay on A375P tumor cells it was 0.5 to 5 µM; in the assay with SK-MEL-28 tumor cells, < 0.5 µM; in the assay on SK-MEL-3 tumor cells, < 0.5 µM; in the assay on Colo205 tumor cells, < 0.5 µM.

`CCNc1nc(-c2ccc(Cl)c(C)c2)c(-c2ccnc(Nc3ccc(OCCN4CCCC4)c(Cl)c3)n2)s1` [Example 54, 4-[4-(4-Chloro-3-methylphenyl)-2-(ethylamino)-1,3-thiazol-5-yl]-N-(3-chloro-4-{[2-(1-pyrrolidinyl)ethyl]oxy}phenyl)-2-pyrimidinamine]: the IC50 in the assay with HT-29 tumor cells is < 0.5 µM; at B-Raf, < 0.1 µM; in the assay with A375P tumor cells, 0.5 to 5 µM; with SK-MEL-28 tumor cells it was 0.5 to 5 µM; in the assay with SK-MEL-3 tumor cells, < 0.5 µM; with Colo205 tumor cells, < 0.5 µM.

Regarding `CCNc1nc(-c2ccc(Cl)c(OC)c2)c(-c2ccnc(Nc3ccc(OCCN4CCCC4)c(Cl)c3)n2)s1` [Example 49, 4-[4-[4-Chloro-3-(methyloxy)phenyl]-2-(ethylamino)-1,3-thiazol-5-yl]-N-(3-chloro-4-{[2-(1-pyrrolidinyl)ethyl]oxy}phenyl)-2-pyrimidinamine], the IC50 with HT-29 tumor cells is < 0.5 µM; on B-Raf it was < 0.1 µM; with A375P tumor cells, < 0.5 µM; in the assay with SK-MEL-28 tumor cells it was 0.5 to 5 µM; in the assay with SK-MEL-3 tumor cells, < 0.5 µM; in the assay with Colo205 tumor cells, 0.5 to 5 µM.

Turning to `CCNc1nc(-c2cccc(N(C)C)c2)c(-c2ccnc(Nc3ccc(N4CCOCC4)nc3)n2)s1` [Example 47, 4-[4-[3-(Dimethylamino)phenyl]-2-(ethylamino)-1,3-thiazol-5-yl]-N-[6-(4-morpholinyl)-3-pyridinyl]-2-pyrimidinamine], the IC50 with HT-29 tumor cells is < 0.5 µM; on B-Raf it was < 0.1 µM; in the assay on A375P tumor cells, < 0.5 µM; with SK-MEL-28 tumor cells, > 5 µM; with SK-MEL-3 tumor cells, < 0.5 µM; in the assay with Colo205 tumor cells, 0.5 to 5 µM.

`CCNc1nc(-c2cc(OC)cc(OC)c2)c(-c2ccnc(Nc3ccc(OCCN(C)C)c(C)c3)n2)s1` [Example 106]: the IC50 was < 0.5 µM with HT-29 tumor cells; < 0.1 µM on B-Raf; < 0.5 µM in the assay on A375P tumor cells; 0.5 to 5 µM in the assay with SK-MEL-28 tumor cells; < 0.5 µM with SK-MEL-3 tumor cells; < 0.5 µM in the assay with Colo205 tumor cells.

Regarding `CCNc1nc(-c2cc(OC)cc(OC)c2)c(-c2ccnc(Nc3cc(OC)c(OC4CCN(CCS(C)(=O)=O)CC4)c(OC)c3)n2)o1` [Example 133], the IC50 in the assay on HT-29 tumor cells was 0.5 to 5 µM; at B-Raf it was < 0.1 µM; with A375P tumor cells, 0.5 to 5 µM; with SK-MEL-28 tumor cells, 0.5 to 5 µM; with SK-MEL-3 tumor cells it was 0.5 to 5 µM; with Colo205 tumor cells it was < 0.5 µM.

For the compound `CCNc1nc(-c2cc(OC)cc(OC)c2)c(-c2ccnc(Nc3ccc(N4CCOCC4)nc3)n2)o1` [Example 120], the IC50 in the assay with HT-29 tumor cells is 0.5 to 5 µM; at B-Raf, < 0.1 µM; in the assay with A375P tumor cells, 0.5 to 5 µM; in the assay with SK-MEL-28 tumor cells it was 0.5 to 5 µM; in the assay with SK-MEL-3 tumor cells, 0.5 to 5 µM; with Colo205 tumor cells, < 0.5 µM.

`CCc1nc(-c2cc(C)cc(CO)c2)c(-c2ccnc(Nc3ccc(N4CCN(S(C)(=O)=O)CC4)nc3)n2)s1` [Example 66, (3-{2-Ethyl-5-[2-({6-[4-(methylsulfonyl)piperazin-1-yl]pyridin-3-yl}amino)pyrimidin-4-yl]-1,3-thiazol-4-yl}-5-methylphenyl)methanol]: the IC50 with HT-29 tumor cells was < 0.5 µM; at B-Raf, < 0.1 µM; in the assay with A375P tumor cells, < 0.5 µM; in the assay with SK-MEL-28 tumor cells, 0.5 to 5 µM; in the assay on SK-MEL-3 tumor cells, < 0.5 µM; in the assay on Colo205 tumor cells, < 0.5 µM.
